Patent publication US20150105252A1, “SUBSTITUTED PYRAZOLES AS HERBICIDES” (E I DU PONT DE NEMOURS AND COMPANY, priority 2013, published 2015)

Experiments:
Surinam grass = test: Test E preemergence; type: in vivo, Brachiaria decumbens; conditions: 21 days, scale 0 to 100
Text: (§1) Seeds of plant species selected from bermudagrass (Cynodon dactylon), Surinam grass (Brachiaria decumbens), crabgrass, large (large crabgrass, Digitaria sanguinalis), crabgrass, naked (naked crabgrass, Digitaria nuda), foxtail, green (green foxtail, Setaria viridis), johnsongrass (Sorghum halepense), kochia (Kochia scoparia), morningglory (pitted morningglory, Ipomoea lacunosa), nutsedge, purple (purple nutsedge, Cyperus rotundus), ragweed (common ragweed, Ambrosia elation), mustard, black (black mustard, Brassica nigra), guineagrass (Panicum maximum), dallisgrass (Paspalum dilatatum), barnyardgrass (Echinochloa crus-galli), sandbur (southern sandbur, Cenchrus echinatus), sowthistle (common sowthistle, Sonchus oleraceous), ryegrass, Italian (Italian ryegrass, Lolium multiflorum), signalgrass (broadleaf signalgrass, Brachiaria platyphylla), dayflower, VA (Virginia (VA) dayflower, Commelina virginica), bluegrass (annual bluegrass, Poa annua), quackgrass (Elytrigia repens), mallow (common mallow, Malva sylvestris), buckwheat, wild (wild buckwheat, Polygonum convolvulus), leafy spurge (Euphorbia esula), common chickweed (Stellaria media), wild poinsettia (Euphorbia heterophylla), pigweed, palmer (palmer pigweed, Amaranthus palmeri), and pigweed (redroot pigweed, Amaranthus retroflexus) were planted into a blend of loam soil and sand and treated preemergence with test chemicals formulated in a non-phytotoxic solvent mixture which included a surfactant.
(§2) Treated plants and controls were maintained in a greenhouse for 21 days, after which time all species were compared to controls and visually evaluated. Plant response ratings, summarized in Table E, are based on a scale of 0 to 100 where 0 is no effect and 100 is complete control. A dash (-) response means no test result.

dallisgrass = test: Test E preemergence; type: in vivo, Paspalum dilatatum; conditions: 21 days, scale 0 to 100
Text: as §1, §2

barnyardgrass = test: Test E preemergence; type: in vivo, Echinochloa crus-galli; conditions: 21 days, scale 0 to 100
Text: as §1, §2

sandbur = test: Test E preemergence; type: in vivo, Cenchrus echinatus; conditions: 21 days, scale 0 to 100
Text: as §1, §2

mustard, black = test: Test E preemergence; type: in vivo, Brassica nigra; conditions: 21 days, scale 0 to 100
Text: as §1, §2

Italian ryegrass = test: Test A postemergence; type: in vivo, Lolium multiflorum
In short: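 Greenhouse test in loam soil/sand blend; compounds formulated in non-phytotoxic solvent with surfactant, applied as preemergence directed soil spray or postemergence to plants 2–10 cm tall at one- to two-leaf stage. Injury rated visually versus untreated controls after approximately 10 days on a 0 (no effect) to 100 (complete control) scale.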

wild poinsettia = test: Test F postemergence; type: in vivo, Euphorbia heterophylla; conditions: scale 0 to 100
Text: (§3) Seeds of plant species selected from corn (Zea mays), soybean (Glycine max), velvetleaf (Abutilon theophrasti), lambsquarters (Chenopodium album), wild poinsettia (Euphorbia heterophylla), pigweed, palmer (palmer pigweed, Amaranthus palmeri), common waterhemp (Amaranthus rudis), surinam grass (Brachiaria decumbens), large crabgrass (Digitaria sanguinalis), crabgrass, Brazil (Brazilian crabgrass, Digitaria horizontalis), fall panicum (Panicum dichotomiflorum), giant foxtail (Setaria faberii), green foxtail (Setaria viridis), goosegrass (Eleusine indica), johnsongrass (Sorghum halepense), common ragweed (Ambrosia elation), barnyardgrass (Echinochloa crus-galli), southern sandbur (Cenchrus echinatus), arrowleaf sida (Sida rhombifolia), Italian ryegrass (Lolium multiflorum), dayflower, VA (Virginia (VA) dayflower, Commelina virginica), field bindweed (Convolvulus arvensis), cocklebur (common cocklebur, Xanthium strumarium), morningglory (Ipomoea coccinea), nightshade (eastern black nightshade, Solanum ptycanthum), kochia (Kochia scoparia), yellow nutsedge (Cyperus esculentus), and hairy beggarticks (Bidens pilosa), were planted into a silt loam soil and treated preemergence with test chemicals formulated in a non-phytotoxic solvent mixture which included a surfactant.
(§4) At the same time, plants from these crop and weed species and also horseweed (Canada horseweed, Conyza canadensis), smartweed (ladysthumb smartweed, Polygonum persicaria), waterhemp_RES1, (ALS & Triazine resistant common waterhemp, Amaranthus rudis), and waterhemp_RES2, (ALS & HPPD resistant common waterhemp, Amaranthus rudis) were treated with postemergence applications of test chemicals formulated in the same manner. Plants ranged in height from 2 to 18 cm for postemergence treatments (1- to 4-leaf stage). Treated plants and controls were maintained in a greenhouse for 14 to 21 days, after which time all species were compared to controls and visually evaluated. Plant response ratings, summarized in Table F, are based on a scale of 0 to 100 where 0 is no effect and 100 is complete control. A dash (-) response means no test result.

soybean = test: Test F postemergence; type: in vivo, Glycine max; conditions: scale 0 to 100
Text: as §3, §4

field bindweed = test: Test F postemergence; type: in vivo, Convolvulus arvensis; conditions: scale 0 to 100
Text: as §3, §4

corn = test: Test F postemergence; type: in vivo, Zea mays; conditions: scale 0 to 100
Text: as §3, §4

[1] = Postemergence, 500 g ai/ha, 0 to 100 scale (0 no effect, 100 complete control)
[2] = postemergence, 125 g ai/ha, about 10 days, visual rating on 0 to 100 scale (0 no effect, 100 complete control)

For `CCc1cc(C(=O)NC(C)C)nn1Cc1ccnc(C(F)(F)F)c1` [Compound 103], the “Plant response rating, Surinam Grass” value (Surinam grass; 16 g ai/ha) was 95, the “Plant response rating, Surinam Grass” value (Surinam grass; 31 g ai/ha) was 100 and the “Plant response rating, Surinam Grass” value (Surinam grass; 62 g ai/ha) was 100. For the same molecule, the “Plant response rating, Surinam Grass” value (Surinam grass; 125 g ai/ha) was 100, the “Plant response rating, Surinam Grass” value (Surinam grass; 250 g ai/ha) was 100 and the “Plant response rating, Dallisgrass” value (dallisgrass; 16 g ai/ha) was 90. The “Plant response rating, Dallisgrass” value (dallisgrass; 31 g ai/ha) was 100, the “Plant response rating, Dallisgrass” value (dallisgrass; 62 g ai/ha) was 100 and the “Plant response rating, Dallisgrass” value (dallisgrass; 125 g ai/ha) was 100. The “Plant response rating, Dallisgrass” value (dallisgrass; 250 g ai/ha) was 100, the “Plant response rating, Barnyardgrass” value (barnyardgrass; 16 g ai/ha) was 90 and the “Plant response rating, Barnyardgrass” value (barnyardgrass; 31 g ai/ha) was 100. For the same molecule, the “Plant response rating, Barnyardgrass” value (barnyardgrass; 62 g ai/ha) was 100, the “Plant response rating, Barnyardgrass” value (barnyardgrass; 125 g ai/ha) was 100 and the “Plant response rating, Barnyardgrass” value (barnyardgrass; 250 g ai/ha) was 100. The “Plant response rating, Sandbur” value (sandbur; 16 g ai/ha) was 40, the “Plant response rating, Sandbur” value (sandbur; 31 g ai/ha) was 70 and the “Plant response rating, Sandbur” value (sandbur; 62 g ai/ha) was 100. For the same molecule, the “Plant response rating, Sandbur” value (sandbur; 125 g ai/ha) was 100, the “Plant response rating, Sandbur” value (sandbur; 250 g ai/ha) was 100 and the “Plant response rating, Mustard, Black” value (mustard, black; 16 g ai/ha) was 100. The “Plant response rating, Mustard, Black” value (mustard, black; 31 g ai/ha) was 100, the “Plant response rating, Mustard, Black” value (mustard, black; 62 g ai/ha) was 100 and the “Plant response rating, Mustard, Black” value (mustard, black; 125 g ai/ha) was 100. For the same molecule, the “Plant response rating, Mustard, Black” value (mustard, black; 250 g ai/ha) was 100.
In the case of `CCONC(=O)c1cc(CC)n(Cc2cc(C(F)(F)F)no2)n1` [Compound 125], the “Italian Ryegrass plant response rating” value (Italian ryegrass; [1]) is reported as 80 and the “Italian Ryegrass plant response rating” value (Italian ryegrass; [2]) is reported as 20.
For `CCOc1cc(C(=O)NC2CC2)nn1Cc1ccnc(OC(F)F)c1` [Compound 133], the “Italian Ryegrass plant response rating” value (Italian ryegrass; [1]) was 80 and the “Italian Ryegrass plant response rating” value (Italian ryegrass; [2]) was 60.
`CCOc1cc(C(=O)NC(C)C)nn1Cc1ccnc(C(F)(F)F)c1` [Compound 188] was tested, and the “Plant response rating, Wild Poinsettia” value (wild poinsettia; Postemergence, 31 g ai/ha) was 60, the “Plant response rating, Wild Poinsettia” value (wild poinsettia; Postemergence, 125 g ai/ha) was 60 and the “Plant response rating, Wild Poinsettia” value (wild poinsettia; Postemergence, 250 g ai/ha) was 80. For the same molecule, the “Plant response rating, Wild Poinsettia” value (wild poinsettia; postemergence, 62 g ai/ha) was 70, the “Plant response rating, Wild Poinsettia” value (wild poinsettia; postemergence, 500 g ai/ha) was 85 and the “Plant response rating, Soybean” value (soybean; Postemergence, 31 g ai/ha) was 98. The “Plant response rating, Soybean” value (soybean; Postemergence, 125 g ai/ha) was 95, the “Plant response rating, Soybean” value (soybean; Postemergence, 250 g ai/ha) was 98 and the “Plant response rating, Soybean” value (soybean; postemergence, 62 g ai/ha) was 95. The “Plant response rating, Soybean” value (soybean; postemergence, 500 g ai/ha) was 98, the “Plant response rating, Field Bindweed” value (field bindweed; Postemergence, 31 g ai/ha) was 70 and the “Plant response rating, Field Bindweed” value (field bindweed; Postemergence, 125 g ai/ha) was 90. The “Plant response rating, Field Bindweed” value (field bindweed; Postemergence, 250 g ai/ha) was 95, the “Plant response rating, Field Bindweed” value (field bindweed; postemergence, 62 g ai/ha) was 70 and the “Plant response rating, Field Bindweed” value (field bindweed; postemergence, 500 g ai/ha) was 95. For the same molecule, the “Plant response rating, Corn” value (corn; Postemergence, 31 g ai/ha) was 10, the “Plant response rating, Corn” value (corn; Postemergence, 125 g ai/ha) was 60 and the “Plant response rating, Corn” value (corn; Postemergence, 250 g ai/ha) was 95. For the same molecule, the “Plant response rating, Corn” value (corn; postemergence, 62 g ai/ha) was 20.
`CCOc1cc(C(=O)NC2CC2)nn1Cc1ccnc(C(F)(F)F)c1` [Compound 189] was tested, and the “Plant response rating, Surinam Grass” value (Surinam grass; 4 g ai/ha) was 0, the “Plant response rating, Surinam Grass” value (Surinam grass; 8 g ai/ha) was 0 and the “Plant response rating, Surinam Grass” value (Surinam grass; 16 g ai/ha) was 25. The “Plant response rating, Surinam Grass” value (Surinam grass; 31 g ai/ha) was 80, the “Plant response rating, Surinam Grass” value (Surinam grass; 62 g ai/ha) was 100 and the “Plant response rating, Dallisgrass” value (dallisgrass; 4 g ai/ha) was 0. The “Plant response rating, Dallisgrass” value (dallisgrass; 8 g ai/ha) was 5, the “Plant response rating, Dallisgrass” value (dallisgrass; 16 g ai/ha) was 75 and the “Plant response rating, Dallisgrass” value (dallisgrass; 31 g ai/ha) was 100. The “Plant response rating, Dallisgrass” value (dallisgrass; 62 g ai/ha) was 100, the “Plant response rating, Barnyardgrass” value (barnyardgrass; 4 g ai/ha) was 0 and the “Plant response rating, Barnyardgrass” value (barnyardgrass; 8 g ai/ha) was 0. For the same molecule, the “Plant response rating, Barnyardgrass” value (barnyardgrass; 16 g ai/ha) was 35, the “Plant response rating, Barnyardgrass” value (barnyardgrass; 31 g ai/ha) was 100 and the “Plant response rating, Barnyardgrass” value (barnyardgrass; 62 g ai/ha) was 100. For the same molecule, the “Plant response rating, Sandbur” value (sandbur; 4 g ai/ha) was 0, the “Plant response rating, Sandbur” value (sandbur; 8 g ai/ha) was 0 and the “Plant response rating, Sandbur” value (sandbur; 16 g ai/ha) was 0. The “Plant response rating, Sandbur” value (sandbur; 31 g ai/ha) was 20, the “Plant response rating, Sandbur” value (sandbur; 62 g ai/ha) was 90 and the “Plant response rating, Mustard, Black” value (mustard, black; 4 g ai/ha) was 95. For the same molecule, the “Plant response rating, Mustard, Black” value (mustard, black; 8 g ai/ha) was 98, the “Plant response rating, Mustard, Black” value (mustard, black; 16 g ai/ha) was 100 and the “Plant response rating, Mustard, Black” value (mustard, black; 31 g ai/ha) was 100. The “Plant response rating, Mustard, Black” value (mustard, black; 62 g ai/ha) was 100.
In the case of `CCc1cc(C(=O)NCC(F)(F)F)nn1Cc1cc(OC(F)F)nn1C` [Compound 206], the “Italian Ryegrass plant response rating” value (Italian ryegrass; Postemergence, 125 g ai/ha, 0 to 100 scale, 0 no effect, 100 complete control) is reported as 0 and the “Italian Ryegrass plant response rating” value (Italian ryegrass; [1]) is reported as 50.
